Measured values as given in patent US10105410B2, “Heparanase inhibitory peptides and use thereof for treating clinical pathologies” (RAMBAM MED-TECH LTD., priority 2014, dated 2018).

B1: heparanase: Single chain GS3 heparanase construct comprising the 8 and 50 kDa subunits, purified from baculovirus-infected cells (protein)
chain: QDVVDLDFFTQEPLHLVSPSFLSVTIDANLATDPRFLILLGSPKLRTLARGLSPAYLRFGGTKTDFLIFDPKKESTFEERSYWQSQVNQDICKYGSIPPDVEEKLRLEWPYQEQLLLREHYQKKFKNSTYSRSSVDVLYTFANCSGLDLIFGLNALLRTADLQWNSSNAQLLLDYCSSKGYNISWELGNEPNSFLKKADIFINGSQLGEDFIQLHKLLRKSTFKNAKLYGPDVGQPRRKTAKMLKSFLKAGGEVIDSVTWHHYYLNGRTATKEDFLNPDVLDIFISSVQKVFQVVESTRPGKKVWLGETSSAYGGGAPLLSDTFAAGFMWLDKLGLSARMGIEVVMRQVFFGAGNYHLVDENFDPLPDYWLSLLFKKLVGTKVLMASVQGSKRRKLRVYLHCTNTDNPRYKEGDLTLYAINLHNVTKYLRLPYPFSNKQVDKYLLRPLGPHGLLSKSVQLNGLTLKMVDDQTLPPLMEKPLRPGSSLGLPAFSYSFFVIRNAKVAACI

Legend:
[1] = test system: B16 mouse melanoma tumors; test: Tumor vascularization, MSB stained tumor sections; assay type: in vivo, mice; conditions: MSB staining
[2] = test system: arterial thrombus in the carotid artery; test: Carotid artery 90% stenosis arterial thrombosis, MSB staining; assay type: in vivo, mice; conditions: single s.c. injection, 2 mg/kg; 24 hours after 90% stenosis
Procedure: In a complimentary experiment, mice returned to normal activity after being subjected to stenosis of 90% of the carotid artery. 24 hours later mice were sacrificed. Sections of the carotid artery were analyzed by MSB (Martin, Scarlet, Blue) staining. In the treatment group, following a single s.c. injection of the peptides, almost no fibrin (thrombus) was formed, while in the control group large arterial thrombus was observed. The results are exemplified in FIG. 6B for a control mouse (left panel) and a mouse treated with 2 mg/kg of the peptide set forth in SEQ ID NO: 4 (right panel).

IVC thrombus = test: Inferior vena cava (IVC) thrombosis model; assay type: in vivo, mice; conditions: 2 mg/kg s.c. immediately before IVC exposure; no heparanase injected
Procedure: A large thrombus located distal to the IVC ligation (FIG. 6A, panel I) and after IVC was harvested (FIG. 6A, panel II), was observed. This observation was verified by H&E staining (FIG. 6A, panel III, ×10; FIG. 6A, panel IV, ×100). In subsequent experiments, peptides 3, 4 and 5 were introduced subcutaneously, at a dose of 2 mg/kg, immediately before the IVC exposure. Heparanase was not injected in this line of experiments. Each experimental group included 5 mice. The IVC was re-exposed (FIG. 6A, panel V) and then dissected (FIG. 6A, panel VI). Note that only engorged blood was present and thrombus distal to the IVC ligation was absent. This observation was verified by H&E staining (FIG. 6A, panel VII, ×10; FIG. 6A, panel VIII, ×100). […] Images were visualized through a 0.82 MDC objective lens, captured with a Nikon […] digital camera (Nikon, Tokyo, Japan), and processed with Adobe Photoshop software (Adobe Systems, San Jose, Calif.).

[3] = test system: procoagulant effect of heparanase; test: Heparanase-induced coagulation activation in ICR mice, plasma TAT ELISA; assay type: in vivo; conditions: heparanase 0.5 mg/kg i.p.; peptide 1 or 2 mg/kg s.c. after 30 min; blood after 4 hours
Procedure: (§1) Thrombin-antithrombin complex (TAT) complex was evaluated according to the manufacturer recommendations by Enzygnost® TAT micro ELISA purchased from Siemens (Marburg, Germany). D-dimer assay was performed on the STA-R evolution analyzer (Diagnostica Stago) using recombinant STA-LIATEST D-DI kit (Diagnostica Stago).
Heparanase (Hepa) was injected intra-peritoneal to ICR mice at a dose of 0.5 mg/kg. After 30 min. peptides corresponding to SEQ ID NOs: 2-5 and 7 were injected at a dose of 1 mg/kg (dashed fill) or 2 mg/kg (solid fill) subcutaneously between the shoulders, into the loose skin over the neck. Blood was drawn after 4 hours, and the plasma was analyzed by ELISA for thrombin-antithrombin (TAT) levels.

coagulation activation = test: Intra-peritoneal heparanase injection to ICR mice, plasma TAT, D-Dimer, IL-6; assay type: in vivo; conditions: 0.5 mg/kg i.p.; blood after 4 hours
Procedure: as §1
Material and method used as in Example 1. Heparanase (Hepa) was injected intra-peritoneal at a dose of 0.5 mg/kg to ICR mice. After 4 hours blood was drawn and the plasma was studied by ELISA to thrombin-antithrombin complex (TAT), D-Dimer as markers of coagulation activation and IL-6 as marker of sepsis severity. Please note that when compared with the control group (PBS) heparanase (Hepa) increased the levels of TAT and D-Dimer in a similar magnitude to that of LPS injected at a dose of 5 mg/kg that cause a moderate sepsis (FIG. 1A, B).

Row | Molecule | clot formation / thrombus distal to the IVC ligation (IVC thrombus) | procoagulant effect of heparanase (plasma TAT levels) [3] | further results
1 | AEICLLPLDYGPCR [SEQ ID NO: 4, peptide derived from TFPI-2] | absent |  | tumor vascularization [1]: little to null vascularization; fibrin (thrombus) formation in carotid artery [2]: early thrombus
2 | ICLLPLDYGPCRAL [SEQ ID NO: 3, peptide derived from TFPI-2] | absent |  | 
3 | NANNFYTWEAC [SEQ ID NO: 7, peptide derived from TFPI-2] |  | partially inhibited | 
4 | NNAEICLLPLDYGP [SEQ ID NO: 5, peptide derived from TFPI-2] | absent |  | 
5 | NNFYTWEACDDACW [SEQ ID NO: 2, peptide derived from TFPI-2] |  | partially inhibited | 
6 | B1 |  |  | D-Dimer level compared with control group (PBS) (coagulation activation): increased; IL-6 level compared with control group (coagulation activation): did not increase; TAT level compared with control group (PBS) (coagulation activation): increased
